One may read the IC50 as the midpoint of a concentration-inhibition curve.

The target of the assay is T1, AHR (UniProt P35869).
T1 construct: IC50
T1 sequence (P35869 1-848): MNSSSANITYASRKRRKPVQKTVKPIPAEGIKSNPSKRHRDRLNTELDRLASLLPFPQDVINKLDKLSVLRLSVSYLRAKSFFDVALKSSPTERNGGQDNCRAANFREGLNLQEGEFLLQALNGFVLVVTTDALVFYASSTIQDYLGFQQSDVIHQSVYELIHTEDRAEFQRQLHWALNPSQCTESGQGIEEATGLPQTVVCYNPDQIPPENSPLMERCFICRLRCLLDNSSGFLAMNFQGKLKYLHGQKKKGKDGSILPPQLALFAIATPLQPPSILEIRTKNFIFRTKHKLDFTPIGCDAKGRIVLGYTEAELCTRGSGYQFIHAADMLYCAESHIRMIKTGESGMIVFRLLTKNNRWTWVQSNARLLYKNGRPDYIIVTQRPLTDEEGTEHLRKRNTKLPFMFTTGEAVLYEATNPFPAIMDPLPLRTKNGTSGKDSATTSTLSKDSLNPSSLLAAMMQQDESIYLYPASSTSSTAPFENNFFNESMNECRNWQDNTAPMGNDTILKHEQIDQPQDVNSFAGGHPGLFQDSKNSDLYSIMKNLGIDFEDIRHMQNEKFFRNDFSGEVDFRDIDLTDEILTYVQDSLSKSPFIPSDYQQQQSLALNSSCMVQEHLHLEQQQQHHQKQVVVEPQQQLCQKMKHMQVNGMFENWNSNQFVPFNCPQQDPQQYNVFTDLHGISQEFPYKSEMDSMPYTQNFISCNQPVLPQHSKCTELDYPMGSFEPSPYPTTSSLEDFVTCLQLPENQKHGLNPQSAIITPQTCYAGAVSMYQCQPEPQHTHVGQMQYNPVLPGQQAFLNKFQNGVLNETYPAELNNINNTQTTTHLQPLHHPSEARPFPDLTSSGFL
The experiment in a line: DRE-Luciferase Reporter Assay (Alternate Method) (Example 1B). Particulars: cell line and AHR activating ligand not specified. Type of assay: cell-based, murine or human. A general note: A reporter such as luciferase makes a cellular process visible.
As for `CC(C)c1cnn2c(NC3CCc4[nH]c5ccccc5c4C3)nc(-n3ccnc3)nc12` (stereo not shown) [I-281], the IC50 was < 0.5 µM.
For `Cc1[nH]c2ccccc2c1CCNc1cc(-c2cncc(F)c2)nc2c(C(C)C)cnn12` [I-89, 5-(5-fluoro-3-pyridyl)-3-isopropyl-N-[2-(2-methyl-1H-indol-3-yl)ethyl]pyrazolo[1,5-a]pyrimidin-7-amine] the value was < 0.5 µM; for `CC(C)c1cnn2c(NC3CCc4[nH]c5ccccc5c4C3)nc(-c3ccc4c(c3)OC(F)(F)O4)nc12` (stereo not shown) [I-271], > 1.5 µM; for `Cc1[nH]c2c(F)cccc2c1CCNc1cc(-c2cncc(F)c2)nc2c(C(=O)N3CCOCC3)cnn12` [I-225, [7-[2-(7-Fluoro-2-methyl-1H-indol-3-yl)ethylamino]-5-(5-fluoro-3-pyridyl)pyrazolo[1,5-a]pyrimidin-3-yl]-morpholino-methanone], < 0.5 µM.
For `Cc1cnn2c(NCCc3cn[nH]c3)cc(-c3cncc(F)c3)nc12` [I-173] the value was > 1.5 µM.
The value for `CC(C)c1cnn2c(N[C@H](C)Cc3ccc(O)cc3)cc(-c3cncc(F)c3)nc12` [I-97a, 4-[(2R)-2-[[5-(5-Fluoro-3-pyridyl)-3-isopropyl-pyrazolo[1,5-a]pyrimidin-7-yl]amino]propyl]phenol] was > 1.5 µM; that for `CN(C)C(=O)c1cnn2c(NC3CCc4[nH]c5ccccc5c4C3)nc(-c3cncc(F)c3)nc12` (stereo not shown) [I-288] was < 0.5 µM.
Take `O=C(c1cnn2c(NCCc3c[nH]c4ccccc34)cc(-c3cncc(F)c3)nc12)N1CCCCC1` [I-55, [5-(5-Fluoro-3-pyridyl)-7-[2-(1H-indol-3-yl)ethylamino]pyrazolo[1,5-a]pyrimidin-3-yl]-(1-piperidyl)methanone]: the concentration for half-maximal inhibition (IC50) was < 0.5 µM.
The value for `Cc1cnn2c(N[C@H]3CCc4[nH]c5c(F)cccc5c4C3)cc(-c3cncc(F)c3)nc12` [I-216b] was > 1.5 µM.
With `CC(C)c1cnn2c(N[C@@H]3CCc4[nH]c5ccccc5c4C3)nc(N3CCCCC3)nc12` [I-264, (3R)—N-[8-Isopropyl-2-(1-piperidyl)pyrazolo[1,5-a][1,3,5]triazin-4-yl]-2,3,4,9-tetrahydro-1H-carbazol-3-amine], the IC50 was > 1.5 µM.
The value for `Cc1cnn2c(NC[C@@H](C)c3c[nH]c4ccccc34)cc(-c3cncc(F)c3)nc12` [I-160a, 5-(5-Fluoro-3-pyridyl)-N-[(2S)-2-(1H-indol-3-yl)propyl]-3-methyl-pyrazolo[1,5-a]pyrimidin-7-amine] was > 1.5 µM.
The value for `CN1CCN(C(=O)c2cnn3c(N[C@@H]4CCc5[nH]c6ccccc6c5C4)cc(-c4cncc(F)c4)nc23)CC1` [I-29, [5-(5-Fluoro-3-pyridyl)-7-[[(3R)-2,3,4,9-tetrahydro-1H-carbazol-3-yl]amino]pyrazolo[1,5-a]pyrimidin-3-yl]-(4-methylpiperazin-1-yl)methanone] was > 1.5 µM; that for `CC(C)c1cnn2c(C(=O)NCc3cccc(O)c3)cc(-c3cncc(F)c3)nc12` [I-95, 5-(5-Fluoro-3-pyridyl)-N-[(3-hydroxyphenyl)methyl]-3-isopropyl-pyrazolo[1,5-a]pyrimidine-7-carboxamide] was > 1.5 µM.
On to `CC(C)n1cnc2c(NCCc3c[nH]c4c(F)cc(F)cc34)nc(-c3cncc(F)c3)nc21` [I-23, N-[2-(5,7-Difluoro-1H-indol-3-yl)ethyl]-2-(5-fluoro-3-pyridyl)-9-isopropyl-purin-6-amine], for which the IC50 was < 0.5 µM.
Regarding `Cc1cnn2c(N[C@@H]3Cc4ccc(O)cc4C3)cc(-c3cncc(F)c3)nc12` [I-232, (2R)-2-[[5-(5-Fluoro-3-pyridyl)-3-methyl-pyrazolo[1,5-a]pyrimidin-7-yl]amino]indan-5-ol], the 50% inhibitory concentration (IC50) is < 0.5 µM.
For `CC(C)c1cnn2c(NC3CCc4[nH]c5ccccc5c4C3)nc(N(C)C)nc12` (stereo not shown) [I-250] the value was > 1.5 µM; for `OCc1cnn2c(NC[C@@H](O)c3c[nH]c4ccccc34)cc(-c3cncc(F)c3)nc12` [I-144a, (1S)-2-[[5-(5-fluoro-3-pyridyl)-3-(hydroxymethyl)pyrazolo[1,5-a]pyrimidin-7-yl]amino]-1-(1H-indol-3-yl)ethanol], 1 to 1.5 µM.
For `CC(C)c1cnn2c(NC3CCc4[nH]c5c(F)cccc5c4C3)cc(-c3cncc(F)c3)nc12` (stereo not shown) [I-221] the value was > 1.5 µM; for `CC(C)n1cnc2c(NCCc3cn(C)c4ccccc34)nc(-c3cncc(F)c3)nc21` [I-14, 2-(5-Fluoropyridin-3-yl)-9-isopropyl-N-(2-(1-methyl-1H-indol-3-yl)ethyl)-9H-purin-6-amine], > 1.5 µM; for `Cc1[nH]c2c(F)cc(F)cc2c1CCNc1cc(-c2cncc(F)c2)nc2c(C(C)(C)C)cnn12` [I-91, 3-tert-Butyl-N-[2-(5,7-difluoro-2-methyl-1H-indol-3-yl)ethyl]-5-(5-fluoro-3-pyridyl)pyrazolo[1,5-a]pyrimidin-7-amine], < 0.5 µM.
For `CC(C)c1cnn2c(NC3CCc4[nH]c5ccccc5c4C3)nc(C3CCCCC3)nc12` (stereo not shown) [I-268], the IC50 is > 1.5 µM.
`CC(C)c1cnn2c(NCCc3c[nH]c4ccccc34)cc(-c3cccc4c3OCO4)nc12` [I-227, 5-(1,3-Benzodioxol-4-yl)-N-[2-(1H-indol-3-yl)ethyl]-3-isopropyl-pyrazolo[1,5-a]pyrimidin-7-amine]: the half-inhibitory concentration (IC50) is < 0.5 µM.
As to `CC(C)c1cnn2c(N[C@H]3CCc4cn[nH]c4C3)cc(-c3cncc(F)c3)nc12` (single isomer, unassigned) [I-32a], the IC50 was > 1.5 µM.
For `CC(C)Nc1cc(NCCc2c[nH]c3ccccc23)nc(-c2cncc(F)c2)n1` [I-20, 2-(5-Fluoro-3-pyridyl)-N6-[2-(1H-indol-3-yl)ethyl]-N4-isopropyl-pyrimidine-4,6-diamine] the value was < 0.5 µM; for `CC(C)c1cnn2c(N[C@H]3CCc4[nH]c(-c5ccccc5)cc4C3)nc(-c3cncc(F)c3)nc12` [I-249a, 2-(5-Fluoro-3-pyridyl)-8-isopropyl-N-[(5S)-2-phenyl-4,5,6,7-tetrahydro-1H-indol-5-yl]pyrazolo[1,5-a][1,3,5]triazin-4-amine], < 0.5 µM; for `Cc1cnn2c(NC3Cc4ccc(O)cc4C3)cc(-c3cncc(F)c3)nc12` (stereo not shown) [I-51, 2-[[5-(5-Fluoro-3-pyridyl)-3-methyl-pyrazolo[1,5-a]pyrimidin-7-yl]amino]indan-5-ol], < 0.5 µM.
Turning to `Fc1cncc(-c2nc(NCCc3c[nH]c4ccccc34)c3ncccc3n2)c1` [I-257, 2-(5-Fluoro-3-pyridyl)-N-[2-(1H-indol-3-yl)ethyl]pyrido[3,2-d]pyrimidin-4-amine], the IC50 was < 0.5 µM.
The value for `Fc1cncc(-c2nc(NCCc3c[nH]c4ccccc34)cc(N3CCOCC3)n2)c1` [I-64, 2-(5-Fluoro-3-pyridyl)-N-[2-(1H-indol-3-yl)ethyl]-6-morpholino-pyrimidin-4-amine] was < 0.5 µM; that for `Cc1cnn2c(NCCc3ccnc(O)c3)cc(-c3cncc(F)c3)nc12` [I-193] was > 1.5 µM.
For `Cc1c(-c2cncc(F)c2)nc2c(C)cnn2c1NCCc1c[nH]c2ccccc12` [I-169, 5-(5-Fluoro-3-pyridyl)-N-[2-(1H-indol-3-yl)ethyl]-3,6-dimethyl-pyrazolo[1,5-a]pyrimidin-7-amine] the value was 0.5 to 1 µM; for `CC(C)N(C)c1cc(NCCc2c[nH]c3ccccc23)nc(-c2cncc(F)c2)n1` [I-93, 2-(5-Fluoro-3-pyridyl)-N6-[2-(1H-indol-3-yl)ethyl]-N4-isopropyl-N4-methyl-pyrimidine-4,6-diamine], < 0.5 µM.

Source of the values: patent US11358969B2, “Indole AHR inhibitors and uses thereof” (Ikena Oncology, Inc., priority 2017, dated 2022).
